{"source": "patent US8247532B2", "about": "“Deuterated hepatitis C protease inhibitors” (Vertex Pharmaceuticals Incorporated, priority 2006, dated 2012)", "key": {"[1]": {"type": "in vitro ADME", "conditions": "human", "procedure": "(§1) The epimerization rate was measured according to the following assay. Specifically, 100 μL medium (buffer, rat plasma, dog plasma, or human plasma) was added into a 96-well deep plate. To the plasma was then added 10 μL acetonitrile solution containing a test compound (1S,3aR,6aS)-2-((S)-2-((S)-2-cyclohexyl-2-(pyrazine-2-carboxamido)acetamido)-3,3-dimethylbutanoyl)-N—((S)-1-(cyclopropylamino)-1,2-dioxo-3-deutero-hexan-3-yl)octahydrocyclopenta[c]pyrrole-1-carboxamide (at 1 uM or 10 uM) and 1200 μL ethyl acetate into the 96 deep-well plate (2 mL) by using a TomTec liquid handling workstation (Hamden, Conn., USA). The plate was then covered tightly and shaken with a vortex for 20 minutes before it was centrifuged at 3000 rpm for 10 minutes. After centrifuge, 900 μL of the supernatant was transferred to a new V-shape 96 deep-well plate using TomTec, and then dried under nitrogen gas (flow rate of 60 L/min) at 25° C. for about 30 minutes. The residue was reconstituted with 100 μL ethyl acetate, and the solution was again transferred into the glass inserts in the 96-well plate. 20 uL of the reconstituted solution was injected into LC-MS/MS to determine the amount of the epimers. The LC-MS/MS spectrometer used a ChiralPak AD Column (4.6×150 mm, 10 μm), a mixture of isopropanol and n-heptane (10:90, 50:50, or 90:10) as the mobile phase, and isopropanol as the washing solvent. […]"}, "[2]": {"assay": "Epimerization rate assay in buffer", "type": "physicochemical", "conditions": "1 uM and 10 uM", "procedure": "as §1"}}, "data": [{"smiles": "[2H][C@@](CCC)(NC(=O)[C@@H]1[C@H]2CCC[C@H]2CN1C(=O)[C@@H](NC(=O)[C@@H](NC(=O)c1cnccn1)C1CCCCC1)C(C)(C)C)C(=O)C(=O)NC1CC1", "note": "[deuterated compound, (1S,3aR,6aS)-2-((S)-2-((S)-2-cyclohexyl-2-(pyrazine-2-carboxamido)acetamido)-3,3-dimethylbutanoyl)-N—((S)-1-(cyclopropylamino)-1,2-dioxo-3-deutero-hexan-3-yl)octahydrocyclopenta[c]pyrrole-1-carboxamide]", "values": [{"measurement": "time course (shape) of epimerization", "setting": "[1]", "result": "linear rate for 180 minutes"}, {"measurement": "epimerization rate compared with non-deuterated form", "setting": "[2]", "result": "slower epimerization rate"}]}]}
